Test results published in ChEMBL document CHEMBL3588818 (Eur J Med Chem, 2015).

Key:
[1] = biological target: T1, Vesicular acetylcholine transporter (Rattus norvegicus, UniProt Q62666); test: Displacement of (-)-[3H]vesamicol from rat VAChT expressed in PC12 cell membranes incubated for 2 hrs by liquid scintillation counting based competitive radioligand binding assay; set-up: species or system PC-12; conditions: read-out: Ki(app)
T1 sequence (Q62666 whole entry): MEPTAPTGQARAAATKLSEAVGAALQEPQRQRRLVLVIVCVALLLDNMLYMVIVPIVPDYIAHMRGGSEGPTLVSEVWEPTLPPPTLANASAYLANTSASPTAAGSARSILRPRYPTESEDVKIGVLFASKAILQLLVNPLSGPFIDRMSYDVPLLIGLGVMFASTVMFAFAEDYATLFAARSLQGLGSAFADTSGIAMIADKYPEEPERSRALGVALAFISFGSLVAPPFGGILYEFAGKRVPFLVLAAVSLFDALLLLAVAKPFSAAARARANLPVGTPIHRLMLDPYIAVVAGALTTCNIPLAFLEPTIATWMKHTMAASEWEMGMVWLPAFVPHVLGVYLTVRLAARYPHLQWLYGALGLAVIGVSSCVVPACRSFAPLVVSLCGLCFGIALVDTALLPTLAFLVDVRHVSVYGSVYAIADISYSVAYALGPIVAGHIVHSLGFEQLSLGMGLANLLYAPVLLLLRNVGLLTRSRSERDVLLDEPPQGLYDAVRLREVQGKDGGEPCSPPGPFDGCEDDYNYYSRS

[2] = biological target: Sigma non-opioid intracellular receptor 1 (Rattus norvegicus, UniProt Q9R0C9); test: Displacement of […] from sigma1 receptor in Sprague-Dawley rat cortical membranes incubated for 2 hrs by liquid scintillation counting based competitive radioligand binding assay; conditions: read-out: Ki(app)
Sigma non-opioid intracellular receptor 1, sequence (Q9R0C9 whole entry): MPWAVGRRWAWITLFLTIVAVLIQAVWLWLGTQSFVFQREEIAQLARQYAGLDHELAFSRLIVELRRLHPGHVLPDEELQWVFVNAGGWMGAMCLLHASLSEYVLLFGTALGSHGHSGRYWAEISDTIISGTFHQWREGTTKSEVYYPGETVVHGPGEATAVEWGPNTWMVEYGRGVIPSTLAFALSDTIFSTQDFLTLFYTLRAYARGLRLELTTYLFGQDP

[3] = Displacement of [3H]DTG from sigma2 receptor in Sprague-Dawley rat liver membranes incubated for 2 hrs in presence of dextrallorphan by liquid scintillation counting based competitive radioligand binding assay; conditions: read-out: Ki(app)
PC-12 [4] = test: Selectivity index, ratio of Ki for sigma1 receptor in Sprague-Dawley rat cortical membranes to Ki for rat VAChT expressed in PC12 cell membranes; format: cell-based
PC-12 [5] = test: Selectivity index, ratio of Ki for sigma2 receptor in Sprague-Dawley rat liver membranes to Ki for rat VAChT expressed in PC12 cell membranes; format: cell-based
[6] = biological target: T2, Vesicular acetylcholine transporter (Torpedo californica, UniProt P81721); test: Displacement of (-)-[3H]vesamicol from VAChT in Torpedo californica electric organ synaptic vesicles; set-up: species or system Tetronarce californica; conditions: read-out: Ki(app)
T2 sequence (P81721 whole entry): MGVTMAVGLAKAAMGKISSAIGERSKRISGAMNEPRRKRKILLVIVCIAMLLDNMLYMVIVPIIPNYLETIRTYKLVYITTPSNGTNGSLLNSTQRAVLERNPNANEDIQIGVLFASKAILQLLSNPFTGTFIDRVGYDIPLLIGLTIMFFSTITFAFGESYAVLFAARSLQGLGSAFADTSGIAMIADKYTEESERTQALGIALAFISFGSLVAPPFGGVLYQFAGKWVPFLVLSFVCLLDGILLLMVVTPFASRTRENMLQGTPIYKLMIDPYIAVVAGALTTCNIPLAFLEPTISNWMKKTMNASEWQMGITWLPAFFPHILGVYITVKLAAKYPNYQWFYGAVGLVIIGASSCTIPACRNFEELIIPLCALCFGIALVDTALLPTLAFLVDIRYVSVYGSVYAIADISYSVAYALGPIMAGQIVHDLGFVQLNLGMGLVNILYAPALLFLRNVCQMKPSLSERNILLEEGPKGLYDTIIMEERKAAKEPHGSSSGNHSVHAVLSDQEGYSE

Row | Compound | Ki [1] | Ki [2] | Ki [3] | Ratio Ki (PC-12 [4]) | Ratio Ki (PC-12 [5]) | Ki [6]
1 | O[C@@H]1CCCC[C@H]1N1CCC(c2ccccc2)(c2ccccc2)CC1 (racemic) | 6710 nM | 43.2 nM | 1830 nM | < 0.1 | 0.3 | 
2 | O[C@@H]1CC[C@@H](OCc2ccc(F)cc2)C[C@H]1N1CC=C(c2ccccc2)CC1 (racemic) | 310 nM | 29.9 nM | 46.9 nM | < 0.1 | 0.2 | 
3 | O[C@@H]1C[C@@H](OCc2ccc(F)cc2)CC[C@H]1N1CCC(Cc2ccccc2)CC1 (racemic) | 1300 nM | 9.2 nM | 207 nM | < 0.1 | 0.2 | 
4 | O=C(Nc1cccc2c1C[C@@H](N1CCC(Cc3ccccc3)CC1)[C@H](O)C2)c1ccc(F)cc1 (racemic) | 527 nM | 1770 nM | 2080 nM | 3.4 | 3.9 | 
5 | O[C@@H]1CC[C@@H](OCc2ccc(F)cc2)C[C@H]1N1CCC(c2ccncc2)CC1 (racemic) | 1350 nM | 26.4 nM | 85.8 nM | < 0.1 | < 0.1 | 
6 | O=C(c1ccc(F)cc1)C1CCN([C@@H]2CC[C@H](OCc3ccc(F)cc3)C[C@H]2O)CC1 (racemic) | 5840 nM | 65.4 nM | 2000 nM | < 0.1 | 0.3 | 
7 | O[C@@H]1CCCC[C@H]1N1CC=C(c2ccccc2)CC1 (racemic) | 439 nM | 9.7 nM | 158 nM | < 0.1 | 0.4 | 
8 | CC(=O)C1(c2ccccc2)CCN([C@@H]2CCCC[C@H]2O)CC1 (racemic) | 1460 nM | 22.5 nM | 164 nM | < 0.1 | 0.1 | 
9 | O[C@@H]1Cc2ccccc2C[C@H]1N1CCC(Cc2ccccc2)CC1 (racemic) | 23.2 nM | 65 nM | 60 nM | 2.8 | 2.6 | 
10 | O[C@@H]1C[C@@H](OCc2ccc(F)cc2)CC[C@H]1N1CC=C(c2ccccc2)CC1 (racemic) | 2830 nM | 15.9 nM | 55.5 nM | < 0.1 | < 0.1 | 
11 | O[C@@H]1CC[C@@H](OCc2ccc(F)cc2)C[C@H]1N1CCC(c2ccccc2)CC1 (racemic) | 25.1 nM | 16.6 nM | 53.1 nM | 0.7 | 2.1 | 
12 | O[C@@H]1Cc2ccccc2C[C@H]1N1CCC(N2CCCCC2)CC1 (racemic) | 112 nM | 248 nM | 161 nM | 2.2 | 1.4 | 
13 | O[C@@H]1CC[C@@H](OCc2ccc(F)cc2)C[C@H]1N1CCN(c2ccccc2)CC1 (racemic) | 697 nM | 103 nM | 167 nM | 0.2 | 0.24 | 
14 | O[C@@H]1CCCC[C@H]1N1CCC(O)(c2ccccc2)CC1 (racemic) | 1000 nM | 454 nM | 1990 nM | 0.4 | 1.9 | 
15 | CC(=O)C1(c2ccccc2)CCN([C@@H]2C[C@H](OCc3ccc(F)cc3)CC[C@H]2O)CC1 (racemic) | 260 nM | 63.1 nM | 18.8 nM | 0.2 | < 0.1 | 
16 | O[C@@H]1CC[C@@H](OCc2ccc(F)cc2)C[C@H]1N1CCc2ccccc2C1 (racemic) | 4670 nM | 59 nM | 45.9 nM | < 0.1 | < 0.1 | 

Row | Compound | Ki [1] | Ki [2] | Ki [3] | Ratio Ki (PC-12 [4]) | Ratio Ki (PC-12 [5]) | Ki [6]
17 | O=C(Nc1cccc2c1C[C@@H](O)[C@H](N1CCC(c3ccccc3)CC1)C2)c1ccc(F)cc1 (racemic) | 188 nM | 626 nM | 1380 nM | 3.3 | 2.2 | 
18 | O[C@@H]1C[C@@H](OCc2ccc(F)cc2)CC[C@H]1N1CCC(c2ccccc2)(c2ccccc2)CC1 (racemic) | 2730 nM | 736 nM | 5540 nM | 0.3 | 2 | 
19 | Nc1cccc2c1C[C@@H](O)[C@H](N1CCC(c3ccccc3)CC1)C2 (racemic) | 339 nM | 55.3 nM | 726 nM | 0.2 | 2.1 | 
20 | Nc1cccc2c1C[C@@H](N1CCC(c3ccccc3)CC1)[C@H](O)C2 (racemic) | 25.1 nM | 119 nM | 474 nM | 4.7 | 18.9 | 0.013 nM
21 | O[C@@H]1CC[C@@H](OCCCF)C[C@H]1N1CCC(c2ccccc2)CC1 (racemic) | 47.8 nM | 25.9 nM | 88.2 nM | 0.5 | 1.8 | 
22 | O[C@@H]1Cc2ccccc2C[C@H]1N1CCC(O)(c2ccccc2)CC1 (racemic) | 11.5 nM | 67 nM | 549 nM | 5.8 | 47.7 | 
23 | O[C@@H]1CCCC[C@H]1N1CCN(c2ccccc2)CC1 (racemic) | 838 nM | 83.9 nM | 695 nM | 0.1 | 0.8 | 
24 | O=C(c1ccc(F)cc1)C1CCN([C@@H]2CCCC[C@H]2O)CC1 (racemic) | 3240 nM | 60.9 nM | 730 nM | < 0.1 | 0.2 | 
25 | O[C@@H]1CC[C@@H](OCc2ccc(F)cc2)C[C@H]1N1CCC(c2ccccc2)(c2ccccc2)CC1 (racemic) | 603 nM | 456 nM | 2360 nM | 0.8 | 3.9 | 
26 | O[C@@H]1Cc2ccccc2C[C@H]1N1CCN(c2ccccc2)CC1 (racemic) | 56 nM | 466 nM | 1280 nM | 8.3 | 22.7 | 
27 | O[C@@H]1CC=CC[C@H]1N1CCC(c2ccccc2)CC1 (racemic) | 18.4 nM | 5.8 nM | 77.1 nM | 0.3 | 4.2 | 0.34 nM
28 | O[C@@H]1CC[C@@H](OCc2ccc(F)cc2)C[C@H]1N1CCC(O)(c2ccccc2)CC1 (racemic) | 316 nM | 47.3 nM | 134 nM | 0.2 | 0.4 | 
29 | O=C(c1ccc(F)cc1)C1CCN([C@@H]2Cc3ccccc3C[C@H]2O)CC1 (racemic) | 24.4 nM | 215 nM | 284 nM | 8.8 | 1.6 | 2.7 nM
30 | O[C@@H]1Cc2ccccc2C[C@H]1N1CCC(c2ccncc2)CC1 (racemic) | 19.3 nM | 8.9 nM | 258 nM | 0.5 | 13.4 | 
31 | O[C@@H]1C[C@@H](OCc2ccc(F)cc2)CC[C@H]1N1CCC(c2ccccc2)CC1 (racemic) | 2390 nM | 16.8 nM | 67.1 nM | < 0.1 | < 0.1 | 
